Literature values as cited in patent US20190032079A1, “SYSTEMIC SYNTHESIS AND REGULATION OF L-DOPA” (MYODOPA LIMITED, priority 2015, published 2019).
Read-outs that look alike come from different tables or passages of the source. Each block holds one compound with its values, some of them ahead of it.

Experiments:
TH [1] = target: TH (Rattus norvegicus, UniProt P04177)
THΔ68 = THΔ68 (Rattus norvegicus, UniProt P04177)
TH [2] = system: TH
THΔ32 = THΔ32 (Rattus norvegicus, UniProt P04177)
[3] = intra-intestinal infusion; improved control of PD and dyskinesia
[4] = preincubation with stoichiometric amounts of dopamine

Chain of TH (Rattus norvegicus, UniProt P04177) (P04177 whole entry): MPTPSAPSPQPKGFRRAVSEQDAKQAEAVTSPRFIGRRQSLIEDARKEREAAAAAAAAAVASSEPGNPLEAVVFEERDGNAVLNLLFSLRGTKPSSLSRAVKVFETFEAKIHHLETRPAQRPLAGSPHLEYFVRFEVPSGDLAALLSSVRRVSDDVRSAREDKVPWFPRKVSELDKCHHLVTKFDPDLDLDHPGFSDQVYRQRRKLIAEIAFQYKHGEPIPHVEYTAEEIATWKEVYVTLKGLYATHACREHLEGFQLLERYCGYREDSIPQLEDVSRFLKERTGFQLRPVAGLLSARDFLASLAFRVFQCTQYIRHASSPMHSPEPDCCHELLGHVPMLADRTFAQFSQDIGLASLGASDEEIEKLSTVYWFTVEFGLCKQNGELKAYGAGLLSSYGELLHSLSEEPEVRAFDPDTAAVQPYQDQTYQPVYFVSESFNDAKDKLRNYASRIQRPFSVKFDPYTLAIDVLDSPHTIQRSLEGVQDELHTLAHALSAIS
Chain of THΔ68 (P04177 69-498 limits assumed, stated change not applied): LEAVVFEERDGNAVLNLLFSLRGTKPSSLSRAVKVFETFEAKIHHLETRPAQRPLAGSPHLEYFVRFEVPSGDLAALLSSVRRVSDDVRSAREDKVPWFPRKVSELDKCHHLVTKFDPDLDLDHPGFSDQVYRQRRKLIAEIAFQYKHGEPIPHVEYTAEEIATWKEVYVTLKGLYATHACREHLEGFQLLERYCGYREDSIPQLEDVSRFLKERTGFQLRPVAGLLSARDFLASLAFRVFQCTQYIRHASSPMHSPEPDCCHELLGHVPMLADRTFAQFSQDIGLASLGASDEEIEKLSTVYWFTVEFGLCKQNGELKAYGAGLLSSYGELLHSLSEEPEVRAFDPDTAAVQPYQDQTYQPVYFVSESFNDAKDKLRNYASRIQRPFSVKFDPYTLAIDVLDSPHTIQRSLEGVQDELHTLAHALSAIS
Chain of THΔ32 (P04177 33-498 limits assumed, stated change not applied): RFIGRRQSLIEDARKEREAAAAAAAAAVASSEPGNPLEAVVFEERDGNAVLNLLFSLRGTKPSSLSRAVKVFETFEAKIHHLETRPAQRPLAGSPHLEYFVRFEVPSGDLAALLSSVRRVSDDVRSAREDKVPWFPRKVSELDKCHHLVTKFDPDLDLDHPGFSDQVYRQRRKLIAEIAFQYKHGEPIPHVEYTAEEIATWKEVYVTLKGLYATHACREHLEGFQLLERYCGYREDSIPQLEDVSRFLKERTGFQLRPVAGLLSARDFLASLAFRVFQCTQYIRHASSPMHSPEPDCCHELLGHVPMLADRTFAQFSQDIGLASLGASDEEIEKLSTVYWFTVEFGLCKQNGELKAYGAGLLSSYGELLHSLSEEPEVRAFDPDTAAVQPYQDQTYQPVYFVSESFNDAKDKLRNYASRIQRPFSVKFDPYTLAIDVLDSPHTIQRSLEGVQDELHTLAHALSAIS

therapeutic range for plasma L-DOPA: 0.2 to 1.5 mg/L
Structure (SMILES): N[C@@H](Cc1ccc(O)c(O)c1)C(=O)O [L-DOPA, L-3,4-dihydroxyphenylalanine]

Structure (SMILES): O=C(O)Cc1ccc(O)c(O)c1 [dihydroxyphenylacetate]
binds less tightly than DOPA (TH [1]; relative to DOPA): 100 fold

dopamine release from the enzyme (THΔ68): rapidly released
inhibition by dopamine (THΔ68; [4]): not inhibited
Kd (TH [2]; read-out: K(D), second low affinity dopamine-binding site, present in non-phosphorylated and Ser40-phosphorylated forms): 90 nM
binds more tightly than DOPA (TH [1]; relative to DOPA): 1000 fold
decrease of DA affinity for TH when the enzyme is phosphorylated (TH [1]; ser40 phosphorylation): 300 fold
dopamine release from the enzyme (THΔ32): not released
inhibition by dopamine (THΔ32; [4]): 90%
Structure (SMILES): NCCc1ccc(O)c(O)c1 [dopamine]
increase of TH activity on dissociation of dopamine from the low-affinity site (TH [2]; Ser40-phosphorylated enzyme): 9 fold
increase of TH activity on dissociation of dopamine from the low-affinity site (TH [2]; non-phosphorylated enzyme): 12 fold

Structure (SMILES): COC(=O)[C@@H](N)Cc1ccc(O)c(O)c1 [levodopa methyl ester]
plasma levels of Levodopa [3]: 3000 to 4000 ng/mL
